Measurements published in patent publication US10377734B2, “Resist composition, method for forming resist pattern, polyphenol derivative for use in the composition” (Mitsubishi Gas Chemical Company, Inc., priority 2013, dated 2019).

Assay: Solubility test of compound in safe solvent
Format: physicochemical
Conditions: 23° C., ultrasonic wave 30 minutes, visual evaluation; for Solubility test of compound in safe solvent CHN: CHN (cyclohexanone); for Solubility test of compound in safe solvent PGME: PGME (propylene glycol monomethyl ether)
Protocol: (1) Solubility Test of Compound in Safe Solvent
The solubility of the compound in CHN, PGME and PGMEA was evaluated according to the following standard using the dissolution amount in each solvent. The dissolution amount was determined by precisely weighing the compound in a test tube at 23° C.; adding the target solvent to the compound so that a predetermined concentration of the liquid to be obtained was set; applying a ultrasonic wave to the liquid in an ultrasonic washing machine for 30 minutes; and visually evaluating the state of the resulting liquid.
A: 5.0% by mass Dissolution amount
B: 3.0% by mass Dissolution amount <5.0% by mass
C: Dissolution amount <3.0% by mass

Structure (SMILES)	Solubility test of compound in safe solvent CHN	Solubility test of compound in safe solvent PGME	Solubility test of compound in safe solvent PGMEA
CC(C)(C)OC(=O)COc1ccc2c3c(ccc2c1)Oc1ccc2cc(OCC(=O)OC(C)(C)C)ccc2c1C3c1ccc(-c2ccccc2)cc1 [XBisN-1-MeBOC]	A (5.0% by mass Dissolution amount)	A (5.0% by mass Dissolution amount)	B (3.0% by mass Dissolution amount <5.0% by mass)
CC(C)(C)OC(=O)Oc1ccc2c(C(c3ccc(-c4ccccc4)cc3)c3c(OC(=O)OC(C)(C)C)ccc4cc(OC(=O)OC(C)(C)C)ccc34)c(OC(=O)OC(C)(C)C)ccc2c1 [BisN-1-BOC]	A (5.0% by mass Dissolution amount)	B (3.0% by mass Dissolution amount <5.0% by mass)	A (5.0% by mass Dissolution amount)
CC(C)(C)OC(=O)Oc1ccc(C(c2ccc(OC(=O)OC(C)(C)C)cc2)c2ccc3ccc(C(c4ccc(OC(=O)OC(C)(C)C)cc4)c4ccc(OC(=O)OC(C)(C)C)cc4)cc3c2)cc1 [TetP-1-BOC, reference compound]	A (5.0% by mass Dissolution amount)	A (5.0% by mass Dissolution amount)	A (5.0% by mass Dissolution amount)
CC(C)(C)OC(=O)Oc1ccc2c3c(ccc2c1)Oc1ccc2cc(OC(=O)OC(C)(C)C)ccc2c1C3c1ccc(-c2ccccc2)cc1 [XBisN-1-BOC]	A (5.0% by mass Dissolution amount)	B (3.0% by mass Dissolution amount <5.0% by mass)	A (5.0% by mass Dissolution amount)
CC(C)(C)OC(=O)COc1ccc2c(C(c3ccc(-c4ccccc4)cc3)c3c(OCC(=O)OC(C)(C)C)ccc4cc(OCC(=O)OC(C)(C)C)ccc34)c(OCC(=O)OC(C)(C)C)ccc2c1 [BisN-1-MeBOC]	A (5.0% by mass Dissolution amount)	A (5.0% by mass Dissolution amount)	B (3.0% by mass Dissolution amount <5.0% by mass)
